Laboratory results from patent US20260027226A1 (Pheon Therapeutics Ltd, priority 2022, published 2026).
Entries after “also recorded” stand apart in the source; their conditions may differ.

Columns and labels:
Papain = Papain (a Cathepsin B surrogate); details: up to 96 hours
[1] = Comparative repeat-dose rat toxicity study; type: in vivo; details: DAR 8 on Trastuzumab backbone, 20 or 60 mg/kg; for tolerability: IV once every 3 weeks, two doses
[2] = Control incubation in buffer without S9; type: in vitro ADME
Procedure: The control incubations include each ADC without the addition of S9.

HexA DNA fragment = assay: DNA footprinting; type: binding; details: for DNA-binding site sequence: X any base, W adenine or thymine
Procedure: Footprinting reactions were performed as using previously described methods using the DNA fragments HexA and HexB, which together contain all 64 symmetrical hexanucleotide sequences, and MS1 that contains all possible […] tetranucleotide sequences. The DNA fragments were obtained by cutting the parent plasmids with HindIII and SacI (for HexA and MS1) or EcoRI and PstI (for HexB), and were labelled at the “-end of the HindIII or EcoRI sites with [α-^32P]dATP using reverse transcriptase or exo− Klenow fragment. After gel purification, the radiolabelled DNA was dissolved in 10 mM Tris-HCl pH 7.5 containing 0.1 mM EDTA, at a concentration of about 10 c.p.s per μL as determined on a hand held Geiger counter. 1.5 μL of radiolabelled DNA was mixed with 1.5 μL ligand that had been freshly diluted in 10 mM Tris-HCl pH 7.5, containing 10 mM NaCl. The complexes were left to equilibrate for at least 12 hours before digesting with 2 μL dNase I (final concentration about 0.01 units/mL). The reactions were stopped after 1 minute by adding 4 μL of formamide containing 10 mM EDTA and bromophenol blue (0.1% w/v). The samples were then heated at 100° C. for 3 minutes before loading onto 8% denaturing polyacrylamide gels containing 8 M urea. Gels were fixed in 10% acetic acid, transferred to 3 MM paper, dried and exposed to a phosphor screen overnight, before analysing with a Typhoon phosphorimager
The DNA sequence selectivity profile of the molecules was investigated using a modification of a previously established DNA footprinting assay. Following an overnight incubation of the ligand-DNA complexes, the mixture was mixed with strand separation buffer containing 10 mM EDTA, 10 mM NaOH, 0.1% bromophenol blue, 80% formamide and incubated at 100° C. for 3 min. The mixture was then immediately cooled on ice and run on an 8% denaturing gel. […] The possible adducts formed within the HexA sequences are shown in FIGS. 20 and 21, respectively.

[3] = system: linear double-stranded TyrT fragment; assay: DNA cross-linking assay; type: biochemical; details: overnight incubation at 37° C., 10 μM to 0.1 nM
Procedure: After overnight incubation, the samples were mixed with 7 μL loading solution (80% formamide containing 10 mM EDTA, 10 mM NaOH, 0.1% bromophenol blue) and incubated at 65° C. for 5 min. Control 1 (C1) for native double-stranded DNA consisted of 1.5 μL labelled DNA, 1.5 μL 10 mM Tris-HCl, pH 7.5 containing 0.1 mM EDTA and 7 μL 1× loading dye. Control 2 (C2) for denatured native single-stranded DNA was composed of 1.5 μL labelled DNA, 1.5 μL 10 mM Tris-HCl, pH 7.5 containing 0.1 mM EDTA which was incubated at 65° C. for 5 min. Control 3 (C3) for native double-stranded DNA consisted of 1.5 μL labelled DNA, 1.5 μL 10 mM Tris-HCl, pH 7.5 containing 0.1 mM EDTA and 7 μL SSB. Control 4 (C4) for denatured native single-stranded DNA was composed of 1.5 μL labelled DNA, 1.5 μL 10 mM Tris-HCl, pH 7.5 containing 0.1 mM EDTA and 7 μL SSB which was incubated at 65° C. for 5 min. Separation was performed on a 7.5% denaturing polyacrylamide gel (20 cm long, 0.3 mm thick) at 500V for about 4 h until the dye reached the bottom of the gel. The gel plates were then separated, the gels fixed by immersing in 10% (v/v) acetic acid, followed by transfer to Whatmann 3 MM paper and drying under vacuum at 80° C. […]
The ability of 26 to cross-link DNA was evaluated using an assay involving a linear double-stranded TyrT fragment (FIG. 17). […]

[4] = cited from earlier work
[5] = Buffer without S9 (50 mM Na-acetate, pH 5.0); details: 37° C., up to 24 h
[6] = Pooled liver S9 fraction, 50 mM Na-acetate, pH 5.0; details: 37° C., up to 24 h

In the case of “1-(3-(2,5-Dioxo-2,5-dihydro-1H-pyrrol-1-yl)propanamido)-N-((2S)-1-(((2S)-1-(((1S,9S)-9-ethyl-5-fluoro-9-hydroxy-4-methyl-10,13-dioxo-2,3,9,10,12,13,13a,14-octahydro-1H-benzo[de]pyrano[″,″:5,6]indeno[1,2-b]quinolin-1-yl)amino)-1-oxopropan-2-yl)amino)-3-methyl-1-oxobutan-2-yl)-3,6,9,12,15,18,21,24-octaoxaheptacosan-27-amide”, the fragment found (Papain) is reported as “Val-Ala-Exatecan” and the not cleaved (Papain) is reported as “the free payload was not liberated”.
In the case of `CC[C@@]1(O)C(=O)OCc2c1cc1n(c2=O)Cc2c-1nc1cc(F)c(C)c3c1c2[C@@H](NC(=O)[C@H](C)NC(=O)[C@@H](NC(=O)CCOCCOCCOCCOCCOCCOCCOCCOCCNC(=O)CCN1C(=O)C=CC1=O)C(C)C)CC3` [Compound 30, 1-(3-(2,5-Dioxo-2,5-dihydro-1H-pyrrol-1-yl)propanamido)-N-((2S)-1-(((2S)-1-(((1S,9S)-9-ethyl-5-fluoro-9-hydroxy-4-methyl-10,13-dioxo-2,3,9,10,12,13,13a,14-octahydro-1H-benzo[de]pyrano[″,″:5,6]indeno[1,2-b]quinolin-1-yl)amino)-1-oxopropan-2-yl)amino)-3-methyl-1-oxobutan-2-yl)-3,6,9,12,15,18,21,24-octaoxaheptacosan-27-amide], the “changes in hemopoietic system / red cell parameters” value [1] is reported as “negligible effects”, the tolerability [1] is reported as “well tolerated” and the “LC/MS peak area of released payload (exatecan; 4NH2-exatecan; DXd; DM1)” value (from here on “LC/MS peak area of released payload”) ([2]; Buffer without S9, 180 min) is reported as 26,179. The “LC/MS peak area of released payload” value ([2]; Buffer without S9, 360 min) was 51,267 and the “LC/MS peak area of released payload” value ([2]; Buffer without S9, 1440 min) was 59,452.
With `CC[C@@]1(O)C(=O)OCc2c1cc1n(c2=O)Cc2c-1nc1cc(F)c(C)c3c1c2[C@@H](NC(=O)CO)CC3` [Dxd, reference compound] the tolerability [1] was “well tolerated”.
With `C=CCOC(=O)N1c2cc(OCCCC(=O)Nc3cc(C(=O)Nc4ccc(NC(=O)C(F)(F)F)cc4)n(C)c3)c(OC)cc2C(=O)N2CCCC[C@H]2C1OC1CCCCO1` (stereo partly drawn) [Formula 17, Allyl (6aS)-2-methoxy-3-(4-((1-methyl-5-((4-(2,2,2-trifluoroacetamido)phenyl)carbamoyl)-1H-pyrrol-3-yl)amino)-4-oxobutoxy)-12-oxo-6-((tetrahydro-2H-pyran-2-yl)oxy)-6,6a,7,8,9,10-hexahydrobenzo[e]pyrido[1,2-a][1,4]diazepine-5(12H)-carboxylate] the DNA-binding site sequence (HexA DNA fragment) was “XGXWWWW”.
With `COc1cc2c(cc1OCCCC(=O)Nc1cc(C(=O)Nc3ccc(N)cc3)n(C)c1)N=C[C@@H]1CCCCN1C2=O` [Formula 19, (S)—N-(4-Aminophenyl)-4-(4-((2-methoxy-12-oxo-6a,7,8,9,10,12-hexahydrobenzo[e]pyrido[1,2-a][1,4]diazepin-3-yl)oxy)butanamido)-1-methyl-1H-pyrrol-2-carboxamide] the DNA interstrand cross-linking [3] was “incapable of cross-linking DNA”.
With `COc1cc2c(cc1OCCCC(=O)Nc1cc(C(=O)Nc3ccc(-c4cc(C(=O)Nc5ccc(N)cc5)n(C)c4)cc3)n(C)c1)N=C[C@@H]1CCCCN1C2=O` [Formula 26, (S)—N-(4-aminophenyl)-4-(4-(4-(4-((2-methoxy-12-oxo-6a,7,8,9,10,12-hexahydrobenzo[e]pyrido[1,2-a][1,4]diazepin-3-yl)oxy)butanamido)-1-methyl-1H-pyrrol-2-carboxamido)phenyl)-1-methyl-1H-pyrrol-2-carboxamide] the DNA interstrand cross-linking [3] was “Cross-links are not detectable at any concentration”, the “preferred binding sites in HexA” value (HexA DNA fragment; DNase I footprinting) was “only five preferred sites” and the DNA-binding site sequence (HexA DNA fragment) was “XGXWWWW”.
In the case of Adcetris, the “ADC cyno t112” value [4] is listed as 45 to 72 h.
In the case of Trastuzumab-Mal-GGFG-Dxd, the fragment found [5] is reported as “DXd, minor, 0 min; also recorded: exatecan, minor”, the fragment found ([6]; Cynomolgus monkey) is reported as “DXd, minor, 0 min; also recorded: Cys-Mc-GGFG-DXd; also recorded: exatecan, minor” and the fragment found ([6]; Human) is reported as “DXd, 0 min; also recorded: Cys-Mc-GGFG-DXd; also recorded: exatecan, minor”.
